Experimental data as given in paper PMC10819767, “An ADAM10 Exosite Inhibitor Is Efficacious in an In Vivo Collagen-Induced Arthritis Model” (Pharmaceuticals, 2024).
Entries after “also recorded” stand apart in the source; their conditions may differ.

Assays:
[1] = test system: C-reactive protein (CRP); test: RA serum marker ELISA, CRP, CIA mice; format: in vivo, C57 BL/6 mice
Description: (§1) The sample size for therapeutic evaluation was calculated using power analysis based on experimental data from similar studies. In a two-sided test and setting the α value at 0.05 and desired power at 0.95, the sample size turned out to be 5 per group. We also expected deaths during the experiments; therefore, we used the formula Nt = N/1-q, where Nt is the number of mice initially used, N is the number required at the end of the study, and q is the proportion of attrition, which is generally 10%. Thus, at the end of the study period, we expected to have data from at least 6 mice per group, which is enough to attain statistical significance if it exists. Data were analyzed using a one-way ANOVA followed by Dunnett’s test compared with the vehicle control. At the end of the study, the mice were anesthetized and sacrificed using CO2 euthanasia. The hind paws of the mice were subjected to a histopathological examination, and the serum was analyzed for CRP, TNF-α, IL-6, and IL-10, as described in the below sections.
(§2) RA serum marker analysis. Blood was collected from the tail vein, and 100 µL was used for the assays. All assays were conducted using the manufacturer’s instructions for the respective assay kits. The following assay kits were purchased: Mouse TNF-α GENLISA™ ELISA (Krishgen BioSystems cat#KB2145, Mumbai, India), Mouse IL-10 GENLISA™ ELISA (Krishgen BioSystems cat#KB2072), Mouse hsC-Reactive Protein, hs-CRP GENLISA™ ELISA (Krishgen BioSystems cat#KLM0318), Mouse IL-6 GENLISA™ ELISA (Krishgen BioSystems cat#KB2068).

[2] = test system: IL-6; test: RA serum marker ELISA, IL-6, CIA mice; format: in vivo, C57 BL/6 mice
Description: as §1, §2

[3] = test system: articular joints affected by RA; test: Histopathology (H & E) of arthritic joint, CIA mice; format: in vivo, C57 BL/6 mice
Description: as §1, with “sections. Histology. Limbs from euthanized animals were preserved in buffered formalin, decalcified, embedded, sectioned, and stained with hematoxylin and eosin (H & E). Microscopic images were acquired using the Lx 400 microscope (Labomed, Fremont, CA, USA).” for “sections.”

[4] = test system: collagen-induced arthritis (CIA) model; test: CIA mouse model: clinical arthritis score and paw swelling; format: in vivo, C57 BL/6 mice; settings: 10, 30, 50 mg/kg/day; days 1, 14, 21, 28
[5] = test system: adrenergic (ADRB2); design: method as in PMID 34817776; settings: cited from earlier work
[6] = test system: OPRK1; design: method as in PMID 34817776; settings: cited from earlier work
[7] = test system: OPRM1; design: method as in PMID 34817776; settings: cited from earlier work
[8] = test system: OPRD1; design: method as in PMID 34817776; settings: cited from earlier work
[9] = test system: PBMCs and neutrophils; design: method as in PMID 28442704; settings: cited from earlier work
[10] = CID 3117694 50 mg/kg/day, indomethacin 2.5 mg/kg

COc1cccc(C(=O)NNC(=O)C(=O)Nc2ccc(C)c(Cl)c2)c1 [CID 3117694]
concentration of CRP in the blood of arthritic mice ([1]; 30 and 50 mg/kg, vs vehicle control): lowers
CRP blood level vs healthy control [1, 10]: decreased the markers to the level of the healthy control
IL-6 blood level vs healthy control [2, 10]: decreased the markers to the level of the healthy control
concentration of IL-6 in the blood of arthritic mice ([2]; all tested doses (10, 30, 50 mg/kg), vs vehicle control): lowers
histopathological findings (in words) ([3]; 10 mg/kg/day): did not have a pronounced effect on RA markers
histopathological findings (in words) ([3]; 30 mg/kg/day): reduced erosion but not the rest of the symptoms
histopathological findings (in words) ([3]; 50 mg/kg/day): significant reduction in RA hallmarks in most samples; also recorded: healthy bone and cartilage similar to the healthy controls
paw swelling (in words) [4]: time- and dose-dependently decrease paw swelling
activity against ADRB2 [5]: inactive
activity against OPRK1 [6]: inactive
activity against OPRM1 [7]: inactive
activity against OPRD1 [8]: inactive
recruitment of PBMCs and neutrophils [9]: can inhibit
